Results from ChEMBL document CHEMBL1201862, “PubChem BioAssay data set” (2004).
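Where inhibition never reached the appropriate level, the endpoint shown equals the highest concentration tested. Otherwise, values were interpolated linearly from a five-concentration, 48-hour dose response in 96-well plates. Abbreviation: GI50, concentration required for 50% inhibition of growth.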 Active and inactive are the calls of the source. Cut-off read from the data, not from the text of the source: active = GI50 up to about 1.1 µM and inactive = higher.

Legend:
Assay in all cases: inhibition of tumour cell growth, NCI panel, 48 h
NCI/ADR-RES = system: NCI/ADR-RES
HOP-92 = system: HOP-92
DMS-114 = system: DMS-114
HCT-15 = system: HCT-15
SR = system: SR
M14 = system: M14
SNB-78 = system: SNB-78
Hs-578T = system: Hs-578T
786-0 = system: 786-0
M19-MEL = system: M19-MEL
HOP-18 = system: HOP-18
XF498 = system: XF498
MDA-MB-435 = system: MDA-MB-435
BT-549 = system: BT-549
NCI-H460 = system: NCI-H460
MDA-MB-231 = system: MDA-MB-231
TK-10 = system: TK-10
KM-20L2 = system: KM-20L2
HL-60 = system: HL-60
T47D = system: T47D
DU-145 = system: DU-145
UO-31 = system: UO-31
MDA-N = system: MDA-N
NCI-H522 = system: NCI-H522
OVCAR-4 = system: OVCAR-4
ACHN = system: ACHN
PC-3 = system: PC-3
RXF 393 = system: RXF 393
DMS-273 = system: DMS-273
HCC 2998 = system: HCC 2998
DLD-1 = system: DLD-1
A549 = system: A549
SF-539 = system: SF-539
NCI-H23 = system: NCI-H23
SNB-75 = system: SNB-75
KM12 = system: KM12
HOP-62 = system: HOP-62
LXFL 529 = system: LXFL 529
SK-MEL-28 = system: SK-MEL-28
UACC-62 = system: UACC-62
SK-MEL-5 = system: SK-MEL-5
U-251 = system: U-251
CCRF-CEM = system: CCRF-CEM
K562 = system: K562
SF-268 = system: SF-268
MOLT-4 = system: MOLT-4
HCT-116 = system: HCT-116
HT-29 = system: HT-29
SNB-19 = system: SNB-19
SK-OV-3 = system: SK-OV-3
EKVX = system: EKVX
SK-MEL-2 = system: SK-MEL-2
UACC-257 = system: UACC-257
SF-295 = system: SF-295
A498 = system: A498
SN12C = system: SN12C
OVCAR-8 = system: OVCAR-8
OVCAR-5 = system: OVCAR-5
OVCAR-3 = system: OVCAR-3
COLO 205 = system: COLO 205
CAKI-1 = system: CAKI-1
IGROV-1 = system: IGROV-1
Malme-3M = system: Malme-3M
LOX IMVI = system: LOX IMVI
SW-620 = system: SW-620
NCI-H226 = system: NCI-H226
RPMI-8226 = system: RPMI-8226
MCF7 = system: MCF7

Measured: GI50

CCCCCC(O)C1C(=O)OC(C)C(O)/C=C/C=C/C=C/C=C/C=C(\C)C(O)C(O)C(O)CC(O)CC(O)CC(O)CC(O)CC1O (centres undefined)
2.42 µM: HCT-15
inactive: NCI/ADR-RES 1.51 µM | HOP-92 1.71 µM | DMS-114 1.53 µM | SR > 100 µM | M14 > 100 µM | SNB-78 1.88 µM | Hs-578T > 100 µM | 786-0 > 100 µM | M19-MEL 1.24 µM | HOP-18 2.48 µM | XF498 1.49 µM | MDA-MB-435 > 100 µM | BT-549 > 100 µM | NCI-H460 1.56 µM | MDA-MB-231 > 100 µM | TK-10 > 100 µM | KM-20L2 2.28 µM | HL-60 > 100 µM | T47D > 100 µM | DU-145 > 100 µM | UO-31 1.79 µM | MDA-N > 100 µM | NCI-H522 1.73 µM | OVCAR-4 1.82 µM | ACHN > 100 µM | PC-3 > 100 µM | RXF 393 1.41 µM | DMS-273 1.34 µM | HCC 2998 1.76 µM | DLD-1 1.6 µM

O=C1C=CC(CC(=O)c2ccc3ccccc3c2)O1 (centres undefined)
inactive: A549 61.9 µM | HOP-92 28 µM | SF-539 18.9 µM | NCI-H23 20.7 µM | SNB-75 37.8 µM | KM12 17.5 µM | HOP-62 21.5 µM | LXFL 529 18.4 µM | SK-MEL-28 55.8 µM | SR 30.3 µM | M14 32.2 µM | SNB-78 34.9 µM | UACC-62 18.8 µM | SK-MEL-5 59.3 µM | U-251 18.2 µM | CCRF-CEM 23.2 µM | K562 32.9 µM | SF-268 17.6 µM | MOLT-4 21.7 µM | 786-0 21.6 µM | M19-MEL 43.5 µM | HOP-18 35 µM | HCT-116 17.9 µM | XF498 66.5 µM | HT-29 19.1 µM | NCI-H460 24.2 µM | TK-10 32.8 µM | SNB-19 32.7 µM | SK-OV-3 68.1 µM | EKVX > 100 µM | KM-20L2 20.5 µM | HL-60 17.1 µM | SK-MEL-2 23.8 µM | UACC-257 47.6 µM | UO-31 24.3 µM | SF-295 > 100 µM | OVCAR-4 24.9 µM | A498 20 µM | ACHN 37.3 µM | SN12C 18.8 µM | OVCAR-8 18.4 µM | RXF 393 20.5 µM | OVCAR-5 25.4 µM | OVCAR-3 25.2 µM | DMS-273 20 µM | COLO 205 18 µM | CAKI-1 62.1 µM | HCC 2998 17.2 µM | DLD-1 28.7 µM | IGROV-1 29.2 µM | Malme-3M 34.3 µM | LOX IMVI 21 µM | SW-620 26.5 µM
20.5 µM: HCT-15

COC(=O)C1=C(c2ccc3c(c2)OCO3)O[C@H](c2cc(OC)c(OC)c(OC)c2)[C@H]1COC(C)=O
inactive: A549 7.08 µM | HOP-92 2.67 µM | SF-539 1.99 µM | NCI-H23 2.25 µM | SNB-75 4.06 µM | DMS-114 1.15 µM | KM12 4.31 µM | HOP-62 3.08 µM | LXFL 529 2.94 µM | SK-MEL-28 12.2 µM | SR 1.35 µM | M14 1.71 µM | SNB-78 8.49 µM | UACC-62 3.32 µM | U-251 3.48 µM | CCRF-CEM 7.87 µM | K562 3.22 µM | SF-268 7.5 µM | MOLT-4 3.03 µM | 786-0 4.12 µM | M19-MEL 2.45 µM | HOP-18 15.2 µM | HCT-116 4.55 µM | XF498 4.25 µM | HT-29 2.53 µM | NCI-H226 10.4 µM | NCI-H460 4.3 µM | TK-10 13.5 µM | SK-OV-3 1.14 µM | EKVX 38.3 µM | KM-20L2 2.14 µM | SK-MEL-2 12.6 µM | UACC-257 4.4 µM | UO-31 4.31 µM | OVCAR-4 7.48 µM | ACHN 4.91 µM | SN12C 4.34 µM | OVCAR-8 5.04 µM | RXF 393 1.57 µM | OVCAR-5 41.8 µM | OVCAR-3 1.19 µM | RPMI-8226 11.3 µM | DMS-273 2.64 µM | CAKI-1 1.95 µM | HCC 2998 1.74 µM | DLD-1 7.19 µM | IGROV-1 6.84 µM | Malme-3M 1.99 µM | LOX IMVI 8.91 µM | SW-620 3.87 µM
active: SK-MEL-5 0.973 µM | HL-60 0.49 µM | SF-295 0.282 µM | A498 0.352 µM | COLO 205 0.984 µM
5.68 µM: HCT-15

CC1=C2C(O)C(C(C)C(=O)N(C)C)CCC2(C)C=CC1=O (centres undefined)
inactive: NCI/ADR-RES > 100 µM | A549 > 100 µM | HOP-92 > 100 µM | SF-539 > 100 µM | NCI-H23 > 100 µM | SNB-75 > 100 µM | DMS-114 > 100 µM | KM12 > 100 µM | HOP-62 > 100 µM | SK-MEL-28 > 100 µM | SNB-78 > 100 µM | UACC-62 > 100 µM | SK-MEL-5 > 100 µM | U-251 > 100 µM | CCRF-CEM > 100 µM | K562 > 100 µM | SF-268 > 100 µM | MOLT-4 > 100 µM | M19-MEL > 100 µM | HOP-18 > 100 µM | HCT-116 > 100 µM | XF498 > 100 µM | HT-29 > 100 µM | NCI-H226 > 100 µM | NCI-H460 > 100 µM | SNB-19 > 100 µM | MCF7 > 100 µM | SK-OV-3 > 100 µM | EKVX > 100 µM | KM-20L2 > 100 µM | HL-60 > 100 µM | SK-MEL-2 > 100 µM | UACC-257 > 100 µM | UO-31 > 100 µM | SF-295 > 100 µM | NCI-H522 > 100 µM | OVCAR-4 > 100 µM | A498 > 100 µM | SN12C > 100 µM | OVCAR-8 > 100 µM | RXF 393 > 100 µM | OVCAR-5 > 100 µM | OVCAR-3 > 100 µM | RPMI-8226 > 100 µM | DMS-273 > 100 µM | COLO 205 > 100 µM | CAKI-1 > 100 µM | HCC 2998 > 100 µM | DLD-1 > 100 µM | IGROV-1 > 100 µM | LOX IMVI > 100 µM | SW-620 > 100 µM
> 100 µM: HCT-15
